Data reported in the supplement of paper PMC10307832.

compound: CCOC1=CC=CC=C1N=NC2=C(NN(C2=O)C3=NC(=CS3)C4=CC=CC=C4)C [BAM7] + Nc1nc2[nH]cc(CCc3ccc(C(=O)N[C@@H](CCC(=O)O)C(=O)O)cc3)c2c(=O)[nH]1 [Pemetrexed] (partner 0.2 µM); assay: relative viability (nuclei count vs DMSO), 5 days (fraction); higher = more cells survive; settings: first compound 0.5 µM
Method in brief: (§1)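 Relative viability equals treated-well nuclei counts divided by vehicle-well nuclei counts. Counts came from 4× images of lung cancer cell lines grown in 1536-well plates for 5 days after pin-tool dosing on the day after seeding. Dosing used one drug alone or a fixed anchor-drug dose plus five library-drug doses (not always all listed) in √10 steps, and values are medians of duplicate plates.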

Cell Line | relative viability
NCI-H522 | 1.13
NCI-H1650 | 0.336
NCI-H1993 | 0.62
LK-2 | 0.277
NCI-H2342 | 0.677
SK-MES-1 | 0.919
NCI-H2170 | 0.252
HCC-44 | 0.648
NCI-H1648 | 0.874
NCI-H1395 | 0.856
NCI-H1792 | 0.943
NCI-H1793 | 0.931
NCI-H1563 | 0.778
NCI-H1944 | 0.581

same assay, conditions: first compound 5 µM

Cell Line | relative viability
NCI-H522 | 1.09
NCI-H1650 | 0.399
NCI-H1993 | 0.529
LK-2 | 0.249
NCI-H2342 | 0.712
SK-MES-1 | 0.906
NCI-H2170 | 0.281
HCC-44 | 0.642
SW 900 | 0.44
NCI-H1648 | 0.88
NCI-H1395 | 0.91
NCI-H1792 | 1.13
NCI-H1793 | 0.728
NCI-H1563 | 0.853
NCI-H1944 | 0.541
NCI-H358 | 0.177

same assay, conditions: first compound 15.81 µM

Cell Line | relative viability
NCI-H522 | 1.25
NCI-H1650 | 0.399
NCI-H1993 | 0.5
LK-2 | 0.32
NCI-H2342 | 0.734
SK-MES-1 | 0.814
NCI-H2170 | 0.251
HCC-44 | 0.635
NCI-H1648 | 0.677
NCI-H1395 | 0.857
NCI-H1792 | 0.707
NCI-H1793 | 0.809
NCI-H1563 | 0.813
NCI-H1944 | 0.512
NCI-H358 | 0.166

same assay, conditions: first compound 50 µM

Cell Line | relative viability
NCI-H522 | 0.998
NCI-H1650 | 0.354
NCI-H1993 | 0.581
LK-2 | 0.266
NCI-H2342 | 0.72
SK-MES-1 | 0.866
NCI-H2170 | 0.269
HCC-44 | 0.63
SW 900 | 0.505
NCI-H1648 | 1.03
NCI-H1395 | 1.07
NCI-H1792 | 0.816
NCI-H1793 | 1.13
NCI-H1563 | 0.633
NCI-H1944 | 0.512
NCI-H358 | 0.159

compound: CCn1c(-c2nonc2N)nc2c(C#CC(C)(C)O)ncc(OC[C@H]3CCCNC3)c21 + CC(C)C[C@H](NC(=O)[C@H](Cc1ccccc1)NC(=O)c1cnccn1)B(O)O [Bortezomib] (partner 0.002 µM); assay: as above; settings: first compound 0.01 µM
Method in brief: as §1

Cell Line | relative viability
NCI-H727 | 0.782
NCI-H1650 | 0.214
EBC-1 | 0.549
NCI-H1703 | 0.327
NCI-H1993 | 1.23
Calu-6 | 1.01
IA-LM | 0.854
HCC-44 | 0.893
NCI-H1299 | 1.02
NCI-H1792 | 1.04
NCI-H1563 | 0.963
ABC-1 | 0.292

same assay, conditions: first compound 0.03162 µM

Cell Line | relative viability
NCI-H727 | 0.747
NCI-H1650 | 0.195
EBC-1 | 0.566
NCI-H1703 | 0.391
NCI-H1993 | 1.23
Calu-6 | 1.06
IA-LM | 0.77
HCC-44 | 0.808
NCI-H1299 | 1.04
NCI-H1792 | 0.968
NCI-H1563 | 0.842
ABC-1 | 0.299

same assay, conditions: first compound 0.1 µM

Cell Line | relative viability
NCI-H727 | 0.999
NCI-H1650 | 0.223
EBC-1 | 0.521
NCI-H1703 | 0.339
NCI-H1993 | 1.11
Calu-6 | 1.1
IA-LM | 0.877
HCC-44 | 0.89
NCI-H1299 | 0.992
NCI-H1792 | 0.964
NCI-H1563 | 0.752
ABC-1 | 0.301

same assay, conditions: first compound 0.3162 µM

Cell Line | relative viability
NCI-H727 | 0.613
NCI-H1650 | 0.185
EBC-1 | 0.488
NCI-H1703 | 0.201
NCI-H1993 | 1.03
Calu-6 | 0.998
IA-LM | 0.679
HCC-44 | 0.907
NCI-H1299 | 0.988
NCI-H1792 | 0.861
NCI-H1563 | 0.829
ABC-1 | 0.332

same assay, conditions: first compound 1 µM

Cell Line | relative viability
NCI-H727 | 0.791
NCI-H1650 | 0.202
EBC-1 | 0.444
NCI-H1703 | 0.209
NCI-H1993 | 0.975
Calu-6 | 1.12
IA-LM | 0.373
HCC-44 | 0.911
NCI-H1299 | 1
NCI-H1792 | 0.768
NCI-H1563 | 0.796
ABC-1 | 0.294

compound: CCn1c(-c2nonc2N)nc2c(C#CC(C)(C)O)ncc(OC[C@H]3CCCNC3)c21 + Cc1nc(Nc2ncc(C(=O)Nc3c(C)cccc3Cl)s2)cc(N2CCN(CCO)CC2)n1 [Dasatinib] (partner 0.075 µM); assay: as above; settings: first compound 0.01 µM
Method in brief: as §1

Cell Line | relative viability
NCI-H522 | 0.796
NCI-H1623 | 0.567
NCI-H727 | 0.399
NCI-H1650 | 0.338
NCI-H1993 | 0.759
LK-2 | 0.252
NCI-H2342 | 0.286
SK-MES-1 | 0.359
NCI-H2170 | 0.566
SW 900 | 0.731
NCI-H1395 | 0.448
NCI-H1792 | 0.758
NCI-H1793 | 0.361
NCI-H1563 | 0.449
NCI-H1944 | 0.215
ABC-1 | 0.531
NCI-H358 | 0.196

same assay, conditions: first compound 0.03162 µM

Cell Line | relative viability
NCI-H522 | 0.949
NCI-H1623 | 0.482
NCI-H727 | 0.422
NCI-H1650 | 0.302
NCI-H1993 | 0.531
LK-2 | 0.275
NCI-H2342 | 0.304
SK-MES-1 | 0.386
NCI-H2170 | 0.532
SW 900 | 0.527
NCI-H1395 | 0.387
NCI-H1793 | 0.406
NCI-H1563 | 0.437
NCI-H1944 | 0.224
ABC-1 | 0.455
NCI-H358 | 0.19

same assay, conditions: first compound 0.1 µM

Cell Line | relative viability
NCI-H522 | 0.845
NCI-H1623 | 0.548
NCI-H727 | 0.353
NCI-H1650 | 0.297
NCI-H1993 | 0.603
NCI-H2342 | 0.32
SK-MES-1 | 0.446
NCI-H2170 | 0.57
SW 900 | 0.566
NCI-H1395 | 0.395
NCI-H1792 | 0.818
NCI-H1793 | 0.399
NCI-H1563 | 0.441
NCI-H1944 | 0.213
ABC-1 | 0.612
NCI-H358 | 0.169

same assay, conditions: first compound 0.3162 µM

Cell Line | relative viability
NCI-H522 | 0.718
NCI-H1623 | 0.438
NCI-H727 | 0.373
NCI-H1650 | 0.266
NCI-H1993 | 0.473
NCI-H2342 | 0.317
SK-MES-1 | 0.447
NCI-H2170 | 0.535
SW 900 | 0.544
NCI-H1395 | 0.393
NCI-H1792 | 0.705
NCI-H1793 | 0.359
NCI-H1563 | 0.511
NCI-H1944 | 0.212
ABC-1 | 0.448
NCI-H358 | 0.135

same assay, conditions: first compound 1 µM

Cell Line | relative viability
NCI-H522 | 0.998
NCI-H1623 | 0.453
NCI-H727 | 0.459
NCI-H1650 | 0.25
NCI-H1993 | 0.527
LK-2 | 0.406
NCI-H2342 | 0.33
SK-MES-1 | 0.373
NCI-H2170 | 0.516
SW 900 | 0.538
NCI-H1395 | 0.386
NCI-H1792 | 0.897
NCI-H1793 | 0.421
NCI-H1563 | 0.446
NCI-H1944 | 0.212
ABC-1 | 0.559
NCI-H358 | 0.183

compound: CCn1c(-c2nonc2N)nc2c(C#CC(C)(C)O)ncc(OC[C@H]3CCCNC3)c21 + O=C(CCCCCCC(=O)Nc1ccccc1)NO [Vorinostat] (partner 1 µM); assay: as above; settings: first compound 0.01 µM
Method in brief: as §1

Cell Line | relative viability
NCI-H522 | 0.944
NCI-H727 | 1.28
NCI-H1650 | 0.614
NCI-H1993 | 1.01
LK-2 | 0.239
NCI-H2342 | 0.713
SK-MES-1 | 1.08
IA-LM | 1.04
NCI-H2170 | 0.841
HCC-44 | 1.07
SW 900 | 0.524
NCI-H1648 | 0.591
NCI-H1395 | 0.575
NCI-H1793 | 0.652
NCI-H1944 | 0.645
ABC-1 | 1.03
NCI-H358 | 0.766

same assay, conditions: first compound 0.03162 µM

Cell Line | relative viability
NCI-H522 | 0.911
NCI-H727 | 1.12
NCI-H1650 | 0.628
NCI-H1993 | 0.805
LK-2 | 0.291
NCI-H2342 | 0.647
SK-MES-1 | 1.1
IA-LM | 0.961
NCI-H2170 | 0.764
HCC-44 | 1.07
SW 900 | 0.503
NCI-H1648 | 0.418
NCI-H1395 | 0.517
NCI-H1793 | 0.692
NCI-H1944 | 0.477
NCI-H358 | 0.691

same assay, conditions: first compound 0.1 µM

Cell Line | relative viability
NCI-H522 | 0.853
NCI-H727 | 1.19
NCI-H1650 | 0.642
NCI-H1993 | 0.825
LK-2 | 0.289
NCI-H2342 | 0.579
SK-MES-1 | 1.1
IA-LM | 0.953
NCI-H2170 | 0.836
HCC-44 | 1.05
SW 900 | 0.386
NCI-H1648 | 0.365
NCI-H1395 | 0.597
NCI-H1944 | 0.568
ABC-1 | 1.06
NCI-H358 | 0.787

same assay, conditions: first compound 0.3162 µM

Cell Line | relative viability
NCI-H522 | 0.847
NCI-H727 | 1.09
NCI-H1650 | 0.377
NCI-H1993 | 0.776
LK-2 | 0.316
NCI-H2342 | 0.724
SK-MES-1 | 1.05
IA-LM | 0.859
NCI-H2170 | 0.699
HCC-44 | 1.07
SW 900 | 0.312
NCI-H1648 | 0.367
NCI-H1395 | 0.525
NCI-H1793 | 0.605
NCI-H1944 | 0.514
ABC-1 | 1.08
NCI-H358 | 0.629

same assay, conditions: first compound 1 µM

Cell Line | relative viability
NCI-H522 | 0.938
NCI-H727 | 1.26
NCI-H1650 | 0.462
NCI-H1993 | 0.543
LK-2 | 0.321
NCI-H2342 | 0.782
SK-MES-1 | 1.1
IA-LM | 1
NCI-H2170 | 0.85
HCC-44 | 1.04
SW 900 | 0.569
NCI-H1648 | 0.315
NCI-H1395 | 0.52
NCI-H1793 | 0.704
NCI-H1944 | 0.585
ABC-1 | 1.23
NCI-H358 | 0.662
